Laboratory results from ChEMBL document CHEMBL4004843, “"Addition" and "Subtraction": Selectivity Design for Type II Maternal Embryonic Leucine Zipper Kinase Inhibitors” (J Med Chem, 2017).

Assays:
[1] = target: Maternal embryonic leucine zipper kinase (Homo sapiens, UniProt Q14680); experiment: Inhibition of MELK (unknown origin) containing kinase domain and UBA domain using STK S1 as substrate after 20 mins by HTRF assay
[2] = target: Rho-associated protein kinase 2 (Homo sapiens, UniProt O75116); experiment: Inhibition of ROCK2 (unknown origin)
Chain of Rho-associated protein kinase 2 (O75116 whole entry): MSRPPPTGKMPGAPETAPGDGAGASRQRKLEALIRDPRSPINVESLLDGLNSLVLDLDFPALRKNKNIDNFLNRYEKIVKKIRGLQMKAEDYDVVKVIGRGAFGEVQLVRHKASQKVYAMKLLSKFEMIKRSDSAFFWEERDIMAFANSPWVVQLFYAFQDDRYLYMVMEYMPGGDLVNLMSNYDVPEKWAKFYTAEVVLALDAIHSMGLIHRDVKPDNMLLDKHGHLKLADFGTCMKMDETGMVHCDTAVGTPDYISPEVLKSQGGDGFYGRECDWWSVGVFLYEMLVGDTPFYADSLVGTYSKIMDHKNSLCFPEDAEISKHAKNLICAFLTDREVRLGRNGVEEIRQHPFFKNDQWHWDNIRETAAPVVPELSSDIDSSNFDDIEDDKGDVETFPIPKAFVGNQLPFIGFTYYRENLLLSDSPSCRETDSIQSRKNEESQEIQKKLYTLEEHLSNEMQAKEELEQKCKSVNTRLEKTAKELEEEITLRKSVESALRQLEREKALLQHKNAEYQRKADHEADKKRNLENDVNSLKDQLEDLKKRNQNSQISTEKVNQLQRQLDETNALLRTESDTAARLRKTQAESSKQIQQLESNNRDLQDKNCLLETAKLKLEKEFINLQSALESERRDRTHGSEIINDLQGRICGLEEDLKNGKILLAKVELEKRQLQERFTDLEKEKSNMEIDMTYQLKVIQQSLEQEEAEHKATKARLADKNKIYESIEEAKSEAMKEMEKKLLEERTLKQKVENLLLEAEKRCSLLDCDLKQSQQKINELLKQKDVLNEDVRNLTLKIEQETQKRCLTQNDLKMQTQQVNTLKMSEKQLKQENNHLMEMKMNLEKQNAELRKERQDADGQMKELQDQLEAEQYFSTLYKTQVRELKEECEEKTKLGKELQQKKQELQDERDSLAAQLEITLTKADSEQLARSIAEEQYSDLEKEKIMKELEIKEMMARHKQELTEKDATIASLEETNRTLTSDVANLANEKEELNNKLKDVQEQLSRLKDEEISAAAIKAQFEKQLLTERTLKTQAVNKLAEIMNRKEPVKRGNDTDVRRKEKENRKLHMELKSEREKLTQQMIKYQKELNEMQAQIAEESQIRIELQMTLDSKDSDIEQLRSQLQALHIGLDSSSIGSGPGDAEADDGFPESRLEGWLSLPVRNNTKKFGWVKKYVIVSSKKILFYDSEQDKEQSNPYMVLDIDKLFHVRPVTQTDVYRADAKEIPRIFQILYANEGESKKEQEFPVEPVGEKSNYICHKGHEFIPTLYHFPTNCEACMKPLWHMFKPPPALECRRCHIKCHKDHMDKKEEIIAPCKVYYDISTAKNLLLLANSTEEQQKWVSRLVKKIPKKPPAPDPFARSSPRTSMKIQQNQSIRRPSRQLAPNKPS

Chain of Maternal embryonic leucine zipper kinase (Q14680 whole entry, the tested form may be a part): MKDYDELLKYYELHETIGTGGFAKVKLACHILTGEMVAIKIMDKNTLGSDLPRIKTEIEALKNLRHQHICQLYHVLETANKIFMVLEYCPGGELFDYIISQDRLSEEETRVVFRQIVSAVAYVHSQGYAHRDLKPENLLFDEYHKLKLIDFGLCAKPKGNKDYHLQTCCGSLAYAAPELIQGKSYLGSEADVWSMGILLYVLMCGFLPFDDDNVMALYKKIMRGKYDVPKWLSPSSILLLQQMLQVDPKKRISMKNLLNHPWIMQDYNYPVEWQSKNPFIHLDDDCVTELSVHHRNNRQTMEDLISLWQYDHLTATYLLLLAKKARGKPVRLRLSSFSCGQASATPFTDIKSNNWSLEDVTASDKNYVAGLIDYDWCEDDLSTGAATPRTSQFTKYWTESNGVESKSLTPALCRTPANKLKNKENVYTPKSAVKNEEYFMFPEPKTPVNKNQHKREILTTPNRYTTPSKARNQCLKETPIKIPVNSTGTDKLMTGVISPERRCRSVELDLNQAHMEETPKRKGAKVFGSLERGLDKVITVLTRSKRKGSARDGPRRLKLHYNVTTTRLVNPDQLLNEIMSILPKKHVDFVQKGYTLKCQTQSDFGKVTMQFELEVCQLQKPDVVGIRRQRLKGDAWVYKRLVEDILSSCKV

Row | Structure (SMILES) | IC50 [1] [nM] | IC50 [2] [µM]
1 | CNc1ncc(-c2ccc(C(=O)NCC(=O)Nc3ccccc3)cc2)c(OCC2CCNCC2)n1 | 120 | 
2 | CNc1ncc(-c2ccc(C(=O)NCc3nc4ccccc4[nH]3)cc2)c(OCC2CCNCC2)n1 | 9.2 | 
3 | COc1ccc2nc(CNC(=O)c3ccc(-c4cnccc4OCC4CCNCC4)cc3)[nH]c2c1 | 1.5 | 7.8
4 | COc1ccc2nc(CNC(=O)c3ccc(-c4cnc(Nc5ccccc5)nc4OCC4CCNCC4)cc3)[nH]c2c1 | 0.15 | 
5 | O=C(CNC(=O)c1ccc(-c2cnc(Nc3ccccc3)nc2OCC2CCNCC2)cc1)Nc1ccccc1 | 8.8 | 
6 | O=C(NCc1nc2ccccc2[nH]1)c1ccc(-c2cnc(Nc3ccccc3)nc2OCC2CCNCC2)cc1 | 1.1 | 
7 | CNc1ncc(-c2ccc(C(=O)NCc3nc4ccc(OC)cc4[nH]3)cc2)c(OCC2CCNCC2)n1 | 1.5 | 
8 | O=C(CNC(=O)c1ccc(-c2cnccc2OCC2CCNCC2)cc1)Nc1ccccc1 | 740 | 0.36
9 | O=C(NCc1nc2ccccc2[nH]1)c1ccc(-c2cnccc2OCC2CCNCC2)cc1 | 12 | 
